Target: Bcl6 (Homo sapiens (Human), UniProt P41182)
Assay: Bcl-6 protein degradation experiment in Farage cells
Assay type: cell-based
Settings: 24 hours
Description: 2. Bcl-6 Protein Degradation Experiment in Farage Cells
Farage cells purchased from ATCC were placed in an RPMI-1640 complete medium (containing 10% fetal bovine serum, 100 U/mL penicillin and 100 μg/mL streptomycin) and cultured at 37° C. and 5% CO2. The cells in the logarithmic growth phase were collected, and the cell suspension was adjusted to an appropriate density with the culture medium and added to a 6-well cell culture plate at a volume of 1 mL/well. The compounds to be tested were prepared to 2-fold the final concentration, 1 mL of the compounds at different concentrations were added to administration wells, a medium containing 0.2% DMSO was added to control wells, and the plate was incubated at 37° C. for 24 hours. The cells were collected into a 1.5 mL centrifuge tube, 25 μL of RIPA lysis buffer (containing 1× protease inhibitor cocktail) was added, and the cells were lysed on ice for 15 minutes and centrifuged at 12000 rpm/min at 4° C. for 10 minutes. The supernatant was collected and the protein content was determined using the BCA method. The protein sample to be tested was diluted to 0.8 mg/mL, Bcl6 was detected using a fully automated protein expression quantitative analyzer (ProteinSimple), and the internal reference protein was R-actin (both antibodies were from CST). The software (Compass for SW) of the fully automated protein expression quantitative analyzer was used to process the raw data and calculate the peak area and the Bcl6 expression rate relative to the control group. DC50 values were calculated using a four-parameter non-linear fitting model in Graphpad 8.3.0 software.

DC50 [nM] | SMILES
< 10 | CNC(=O)COc1cc2cc(Nc3nc(N4CCC(CN5CCN(c6ccc(C7CCC(=O)NC7=O)cc6)CC5)CC4)ncc3Cl)ccc2n(C)c1=O (centres unmarked) [Trifluoroacetate of compound 14]
< 10 | [2H]C([2H])([2H])n1c(=O)c(OCC(=O)NC)cc2cc(Nc3nc(N4CCC(CN5CCN6c7cc(F)c(C8CCC(=O)NC8=O)cc7CC[C@@H]6C5)CC4)ncc3Cl)ccc21 (some centres unmarked) [Trifluoroacetate of compound 62]
< 10 | CNC(=O)COc1cc2cc(Nc3nc(N4CCC(CN5CCN6c7ccc(C8CCC(=O)NC8=O)cc7CCC6C5)CC4)ncc3Cl)ccc2n(C(C)C)c1=O (centres unmarked) [Trifluoroacetate of compound 54]
< 10 | CNC(=O)COc1cc2cc(Nc3nc(N4CCN(c5ccc(C6CCC(=O)NC6=O)cc5)CC4)ncc3Cl)ccc2n(C)c1=O (centres unmarked) [Trifluoroacetate of compound 20]
< 10 | [2H]C([2H])([2H])NC(=O)COc1cc2cc(Nc3nc(N4CCC(O[C@H]5C[C@H](N6CCN7c8cc(F)c(C9CCC(=O)NC9=O)cc8CC[C@@H]7C6)C5)CC4)ncc3Cl)ccc2n(C)c1=O (some centres unmarked) [Trifluoroacetate of compound 92]
< 10 | [2H]C([2H])([2H])NC(=O)COc1cc2cc(Nc3nc(N4CCC(CN5CCN6c7cc(F)c(C8CCC(=O)NC8=O)cc7CC[C@@H]6C5)CC4)ncc3Cl)ccc2n(C)c1=O (some centres unmarked) [Trifluoroacetate of compound 64]
< 10 | CCn1c(=O)c(OCC(=O)NC)cc2cc(Nc3nc(N4CCC(O[C@H]5C[C@H](N6CCN7c8cc(F)c(C9CCC(=O)NC9=O)cc8CC[C@H]7C6)C5)CC4)ncc3Cl)ccc21 (some centres unmarked) [Trifluoroacetate of compound 61]
< 10 | CNC(=O)COc1cc2cc(Nc3nc(N4CCC(F)(CN5CCN6c7cc(F)c(C8CCC(=O)NC8=O)cc7CC[C@H]6C5)CC4)ncc3Cl)ccc2n(C(C)C)c1=O (some centres unmarked) [Trifluoroacetate of compound 94]
< 10 | CNC(=O)COc1cc2cc(Nc3nc(N4CCN(CC5CCN(c6ccc(C7CCC(=O)NC7=O)cn6)CC5)CC4)ncc3Cl)ccc2n(C)c1=O (centres unmarked) [Compound 39]
< 10 | CNC(=O)COc1cc2cc(Nc3nc(N4CCN(CC5CN(c6ccc(C7CCC(=O)NC7=O)cc6F)C5)CC4)ncc3Cl)ccc2n(C)c1=O (centres unmarked) [Trifluoroacetate of compound 40]
< 10 | CC(=O)COc1cc2cc(Nc3nc(N4CCC(CN5CCN(c6cccc7c6n(C)c(=O)n7C6CCC(=O)NC6=O)CC5)CC4)ncc3Cl)ccc2n(C)c1=O (centres unmarked) [Compound 10]
< 10 | [2H]C([2H])([2H])NC(=O)COc1cc2cc(Nc3nc(N4CCC(O[C@H]5C[C@H](N6CCN7c8cc(F)c(C9CCC(=O)NC9=O)cc8CC[C@@H]7C6)C5)CC4)ncc3Cl)ccc2n(C([2H])([2H])[2H])c1=O (some centres unmarked) [Trifluoroacetate of compound 91]
< 10 | CNC(=O)COc1cc2cc(Nc3nc(N4CCC(N5CCN(c6ccc(NC7CCC(=O)NC7=O)cc6F)CC5)C(F)(F)C4)ncc3Cl)ccc2n(C)c1=O (centres unmarked) [Trifluoroacetate of compound 7]
< 10 | CCn1c(=O)c(OCC(=O)NC)cc2cc(Nc3nc(N4CCN(CC5CCN(c6ccc(C7CCC(=O)NC7=O)c(F)c6)CC5)CC4)ncc3Cl)ccc21 (centres unmarked) [Trifluoroacetate of compound 68]
< 10 | [2H]C([2H])([2H])NC(=O)COc1cc2cc(Nc3nc(N4CCC(O[C@H]5C[C@H](N6CCN7c8cc(F)c(C9CCC(=O)NC9=O)cc8CC[C@@H]7C6)C5)CC4)ncc3Cl)ccc2n(C(C)C)c1=O (some centres unmarked) [Trifluoroacetate of compound 93]
< 10 | CNC(=O)COc1cc2cc(Nc3nc(N4CCN(CC5CCN(c6ccc(C7CCC(=O)NC7=O)c(F)c6)CC5)CC4)ncc3Cl)ccc2n(C2CC2)c1=O (centres unmarked) [Trifluoroacetate of compound 53]
< 10 | CNC(=O)COc1cc2cc(Nc3nc(N4CCC(O[C@H]5C[C@H](N6CCN7c8cc(F)c(C9CCC(=O)NC9=O)cc8CC[C@@H]7C6)C5)CC4)ncc3Cl)ccc2n(C(C)C)c1=O (some centres unmarked) [Trifluoroacetate of compound 70]
< 10 | CNC(=O)COc1cc2cc(Nc3nc(N4CCN(CC5CCN(Cc6cccc7c6n(C)c(=O)n7C6CCC(=O)NC6=O)CC5)CC4)ncc3Cl)ccc2n(C)c1=O (centres unmarked) [Compound 12]
< 10 | [2H]C([2H])([2H])NC(=O)COc1cc2cc(Nc3nc(N4CCN(CC5CCN(c6ccc(C7CCC(=O)NC7=O)cc6)CC5)CC4)ncc3Cl)ccc2n(C)c1=O (centres unmarked) [Compound 47]

DC50 [nM] | SMILES
< 10 | [2H]C([2H])([2H])NC(=O)COc1cc2cc(Nc3nc(N4CCC(O[C@H]5C[C@H](N6CCN7c8cc(F)c(C9CCC(=O)NC9=O)cc8CC[C@H]7C6)C5)CC4)ncc3Cl)ccc2n(C(C)C)c1=O (some centres unmarked) [Trifluoroacetate of compound 84]
< 10 | CNC(=O)COc1cc2cc(Nc3nc(N4CC[C@H](O[C@H]5C[C@H](N6CCN7c8cc(F)c(C9CCC(=O)NC9=O)cc8CC[C@H]7C6)C5)[C@@H](F)C4)ncc3Cl)ccc2n(C(C)C)c1=O (some centres unmarked) [Trifluoroacetate of compound 109]
< 10 | CNC(=O)COc1cc2cc(Nc3nc(N4CCC(O[C@H]5C[C@H](N6CCN(c7ccc(C8CCC(=O)NC8=O)cc7)CC6)C5)CC4)ncc3Cl)ccc2n(C(C)C)c1=O (some centres unmarked) [Compound 95]
< 10 | CNC(=O)COc1cc2cc(Nc3nc(N4CCN(CC5CCN(c6ccc(C7CCC(=O)NC7=O)cc6)CC5)CC4)ncc3Cl)ccc2n(C(C)C)c1=O (centres unmarked) [Trifluoroacetate of compound 42]
< 10 | CC(=O)COc1cc2cc(Nc3nc(N4CCN(c5ccc(C6CCC(=O)NC6=O)cc5)CC4)ncc3Cl)ccc2n(C)c1=O (centres unmarked) [Trifluoroacetate of compound 17]
< 10 | CNC(=O)COc1cc2cc(Nc3nc(N4CCC(N(C)C5CCN(c6cccc7c6n(C)c(=O)n7C6CCC(=O)NC6=O)CC5)CC4)ncc3Cl)ccc2n(C)c1=O (centres unmarked) [Trifluoroacetate of compound 11]
< 10 | CNC(=O)COc1cc2cc(Nc3nc(N4CCC(CN5CCN6c7ccc(C8CCC(=O)NC8=O)cc7CCC6C5)CC4)ncc3Cl)ccc2n(C2CC2)c1=O (centres unmarked) [Compound 51]
< 10 | CCn1c(=O)c(OCC(=O)NC)cc2cc(Nc3nc(N4CCN(CC5CCN(c6ccc(C7CCC(=O)NC7=O)cc6)CC5)CC4)ncc3Cl)ccc21 (centres unmarked) [Trifluoroacetate of compound 69]
< 10 | C#CCn1c(=O)c(OCC(=O)NC)cc2cc(Nc3nc(N4CCC(CN5CCN6c7ccc(C8CCC(=O)NC8=O)cc7CCC6C5)CC4)ncc3Cl)ccc21 (centres unmarked) [Compound 50]
< 10 | CNC(=O)COc1cc2cc(Nc3nc(N4CCC(O[C@H]5C[C@H](N6CCN(c7ccc(C8CCC(=O)NC8=O)c(F)c7)CC6)C5)CC4)ncc3Cl)ccc2n(C(C)C)c1=O (some centres unmarked) [Compound 96]
< 10 | CNC(=O)COc1cc2cc(Nc3nc(N4CCC(F)(CN5CCN6c7cc(F)c(C8CCC(=O)NC8=O)cc7CC[C@@H]6C5)CC4)ncc3Cl)ccc2n(C(C)C)c1=O (some centres unmarked) [Trifluoroacetate of compound 98]
< 10 | [2H]C([2H])([2H])NC(=O)COc1cc2cc(Nc3nc(N4CCC(CN5CCN6c7cc(F)c(C8CCC(=O)NC8=O)cc7CC[C@H]6C5)CC4)ncc3Cl)ccc2n(C(C)C)c1=O (some centres unmarked) [Trifluoroacetate of compound 85]
< 10 | CNC(=O)COc1cc2cc(Nc3nc(N4CCC(CN5CCN(c6cccc7c6n(C)c(=O)n7C6CCC(=O)NC6=O)CC5)CC4)ncc3Cl)ccc2n(C)c1=O (centres unmarked) [Compound 9]
< 10 | CNC(=O)COc1cc2cc(Nc3nc(N4CCN(CC5CCN(c6ccc(C7CCC(=O)NC7=O)cc6F)CC5)CC4)ncc3Cl)ccc2n(C)c1=O (centres unmarked) [Trifluoroacetate of compound 41]
< 10 | CC(=O)COc1cc2cc(Nc3nc(N4CCC(N5CCN(c6ccc(NC7CCC(=O)NC7=O)cc6F)CC5)C(F)(F)C4)ncc3Cl)ccc2n(C)c1=O (centres unmarked) [Trifluoroacetate of compound 5]
< 10 | C#CCn1c(=O)c(OCC(=O)NC)cc2cc(Nc3nc(N4CCN(CC5CCN(c6ccc(C7CCC(=O)NC7=O)c(F)c6)CC5)CC4)ncc3Cl)ccc21 (centres unmarked) [Trifluoroacetate of compound 52]
< 10 | CC(=O)COc1cc2cc(Nc3nc(N4CCN(CC5CCN(c6cc(F)c(C7CCC(=O)NC7=O)c(F)c6)CC5)CC4)ncc3Cl)ccc2n(C)c1=O (centres unmarked) [Compound 22]
< 10 | CNC(=O)COc1cc2cc(Nc3nc(N4CCN(CC5CCN(c6cccc(C7CCC(=O)NC7=O)c6)CC5)CC4)ncc3Cl)ccc2n(C)c1=O (centres unmarked) [Trifluoroacetate of compound 55]
< 10 | [2H]C([2H])([2H])n1c(=O)c(OCC(=O)NC)cc2cc(Nc3nc(N4CCC(O[C@H]5C[C@H](N6CCN7c8cc(F)c(C9CCC(=O)NC9=O)cc8CC[C@@H]7C6)C5)CC4)ncc3Cl)ccc21 (some centres unmarked) [Trifluoroacetate of compound 90]

Tested on: not listed separately
Assay: Pharmacokinetic test in mice
Assay type: in vivo, ICR mice
Settings: male, ICR, mouse, po; mice plasma, i.g. 5 mg/kg
Description: 3. Pharmacokinetic Test in Mice
1.1 Experimental animal: male ICR mice, 25-30 g, 6 mice/compound, purchased from Chengdu Ddossy Experimental Animals Co., Ltd.
1.2 Experimental design: on the day of the experiment, the ICR mice were randomly grouped according to their body weights. The animals were fasted but with water available for 12 to 14 h one day before the administration, and were fed 4 h after the administration.

AUC(0-t) [ng·h/mL] | SMILES
> 1000 | CNC(=O)COc1cc2cc(Nc3nc(N4CCC(CN5CCN(c6ccc(C7CCC(=O)NC7=O)cc6)CC5)CC4)ncc3Cl)ccc2n(C)c1=O (centres unmarked) [Trifluoroacetate of compound 14]
> 1000 | [2H]C([2H])([2H])n1c(=O)c(OCC(=O)NC)cc2cc(Nc3nc(N4CCC(CN5CCN6c7cc(F)c(C8CCC(=O)NC8=O)cc7CC[C@@H]6C5)CC4)ncc3Cl)ccc21 (some centres unmarked) [Trifluoroacetate of compound 62]
> 1000 | [2H]C([2H])([2H])NC(=O)COc1cc2cc(Nc3nc(N4CCC(CN5CCN6c7cc(F)c(C8CCC(=O)NC8=O)cc7CC[C@@H]6C5)CC4)ncc3Cl)ccc2n(C)c1=O (some centres unmarked) [Trifluoroacetate of compound 64]
< 100 | CNC(=O)COc1cc2cc(Nc3nc(N4CCN(CC5CCN(c6cccc7c6C(=O)N(C6CCC(=O)NC6=O)C7=O)CC5)CC4)ncc3Cl)ccc2n(C)c1=O (centres unmarked) [Control compound 1, reference compound]

Same assay, conditions: mice, i.g. 5 mg/kg

F [%] | SMILES
>50 | [2H]C([2H])([2H])n1c(=O)c(OCC(=O)NC)cc2cc(Nc3nc(N4CCC(CN5CCN6c7cc(F)c(C8CCC(=O)NC8=O)cc7CC[C@@H]6C5)CC4)ncc3Cl)ccc21 (some centres unmarked) [Trifluoroacetate of compound 62]
<5 | CNC(=O)COc1cc2cc(Nc3nc(N4CCN(CC5CCN(c6cccc7c6C(=O)N(C6CCC(=O)NC6=O)C7=O)CC5)CC4)ncc3Cl)ccc2n(C)c1=O (centres unmarked) [Control compound 1, reference compound]
